Here are results for nine molecules from US8563714B2, “Bridged spiro [2.4] heptane derivatives as ALX receptor and/or FPRL2 agonists” (Actelion Pharmaceuticals Ltd., priority 2009, dated 2013).

For one test, the target named is T1, human FPRL2 (Homo sapiens, UniProt P25089).
T1 construct: expressed in transfected cells; host or cells: HEK293 (HEK293-hFPRL2-Gα16)
T1 sequence (P25089 1-353): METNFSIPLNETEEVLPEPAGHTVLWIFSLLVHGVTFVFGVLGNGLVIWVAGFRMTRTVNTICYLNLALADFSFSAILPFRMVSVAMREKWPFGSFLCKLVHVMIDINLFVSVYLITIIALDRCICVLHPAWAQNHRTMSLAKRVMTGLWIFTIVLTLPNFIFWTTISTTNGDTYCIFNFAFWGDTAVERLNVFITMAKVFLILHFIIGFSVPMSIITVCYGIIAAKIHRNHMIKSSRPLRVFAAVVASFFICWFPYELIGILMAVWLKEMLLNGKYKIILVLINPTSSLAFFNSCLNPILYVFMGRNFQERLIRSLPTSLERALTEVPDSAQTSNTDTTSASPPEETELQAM
The test can be described thus: Intracellular calcium measurements (FLIPR), agonistic activity in HEK293-hFPRL2-Gα16 cells. It is filed as cell-based. The settings on record: Fluo-4 calcium FLIPR, normalized to GLY14-Humanin 100 nM. Summed up: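 Peak values after baseline subtraction are expressed relative to 100 nM Gly14-Humanin; compounds diluted in assay buffer from 10 mM DMSO stocks.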

The next test has as its target T2, human ALX receptor (Homo sapiens, UniProt P25090).
T2 construct: expressed in transfected cells; host or cells: HEK293 (HEK293-hALXR-Gα16)
T2 sequence (P25090 1-351): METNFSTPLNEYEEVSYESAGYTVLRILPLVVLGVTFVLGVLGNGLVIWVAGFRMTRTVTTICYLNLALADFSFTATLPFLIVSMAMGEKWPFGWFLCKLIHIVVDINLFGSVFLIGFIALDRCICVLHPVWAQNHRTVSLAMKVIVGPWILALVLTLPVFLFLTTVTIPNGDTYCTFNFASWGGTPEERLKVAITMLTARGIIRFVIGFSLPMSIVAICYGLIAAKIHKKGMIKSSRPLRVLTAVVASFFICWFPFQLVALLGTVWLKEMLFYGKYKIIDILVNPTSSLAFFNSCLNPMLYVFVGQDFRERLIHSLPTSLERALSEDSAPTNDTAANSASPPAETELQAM
The test can be described thus: Intracellular calcium measurements (FLIPR), agonistic activity in HEK293-hALXR-Gα16 cells. Format: cell-based. Particulars: Fluo-4 calcium FLIPR, normalized to WKYMVm 10 nM. In outline:
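Agonist-induced calcium flux was recorded by FLIPR (488/540 nm) in HEK293-hALXR-Gα16 cells pre-loaded with Fluo-4 AM (1 μM, 60 min, 37°C). Peak signal above baseline, after subtracting buffer addition, was expressed relative to WKYMVm at 10 nM final.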

Turning to `O=C(NCCCCN1CCCC1)[C@H]1[C@H](C(=O)Nc2ccc(Br)cc2)[C@@H]2C=C[C@H]1C21CC1` [Example 2, (5R)—N^5-(4-Bromophenyl)-(6R)—N^6-(4-pyrrolidin-1-yl-butyl)-(4S,7R)-[4,7-ethenylene-spiro[2.4]heptane]-5,6-dicarboxamide], the figures for the EC50 on human FPRL2 and at human ALX receptor were 46 nM and 0.1 nM, respectively.

With `Cc1ccc(CNC(=O)[C@H]2[C@H](C(=O)NCCCCN3CCCC3)[C@H]3C=C[C@@H]2C32CC2)o1` (racemic) [Example 137, (5R*)—N^5-(5-Methyl-furan-2-yl-methyl)-(6R*)—N^6-(4-pyrrolidin-1-yl-butyl)-(4S*,7R*)-[4,7-ethenylene-spiro[2.4]heptane]-5,6-dicarboxamide], the figures for the EC50 on human FPRL2 and at human ALX receptor were 192 nM and 556 nM, respectively.

For the molecule `CN(C)C(=O)CCNC(=O)[C@H]1[C@H](C(=O)Nc2ccc(Br)cc2)[C@@H]2C=C[C@H]1C21CC1` (racemic) [Example 204, (5R*)—N^5-(4-Bromophenyl)-(6R*)—N^6-(3-dimethylamino-3-oxopropyl)-(4S*,7R*)-[4,7-ethenylene-spiro[2.4]heptane]-5,6-dicarboxamide], the EC50 at human FPRL2 stood at 2080 nM; on human ALX receptor it was 3.4 nM.

Take `O=C(NCCCCN1CCCC1)[C@H]1[C@H](C(=O)Nc2ccc(Br)c(C(F)(F)F)c2)[C@@H]2C=C[C@H]1C21CC1` [Example 395, (5R)—N^5-(4-Bromo-3-trifluoromethylphenyl)-(6R)—N^6-(4-pyrrolidino-butyl)-(4S,7R)-[4,7-ethenylene-spiro[2.4]heptane]-5,6-dicarboxamide]: the EC50 on human FPRL2 worked out at 13 nM; on human ALX receptor, 3800 nM.

Regarding `CN1CCN(CCCNC(=O)[C@H]2[C@H](C(=O)Nc3ccc(Br)cc3)[C@@H]3CC[C@H]2C32CC2)CC1` (racemic) [Example 111, (5R*)—N^5-(4-Bromophenyl)-(6R*)—N^6-(3-(4-methyl-piperazin-1-yl)-propyl)-(4S*,7R*)-[4,7-ethylene-spiro[2.4]heptane]-5,6-dicarboxamide], the EC50 turned out to be 71 nM at human FPRL2 and 1.3 nM at human ALX receptor.

For the molecule `O=C(NCCCCN1CCCCC1)[C@H]1[C@H](C(=O)Nc2ccc(Br)cc2)[C@@H]2C=C[C@H]1C21CC1` [Example 209, (5R)—N^5-(4-Bromophenyl)-(6R)—N^6-(4-piperidino-butyl)-(4S,7R)-[4,7-ethenylene-spiro[2.4]heptane]-5,6-dicarboxamide], the EC50 at human FPRL2 amounted to 58 nM; on human ALX receptor, 0.07 nM.

Take `CC(C)(CN)CNC(=O)[C@H]1[C@H](C(=O)Nc2ncc(Br)s2)[C@@H]2C=C[C@H]1C21CC1` (racemic) [Example 304, (5R*)—N^5-(5-Bromo-thiazol-2-yl)-(6R*)—N^6-(2,2-dimethyl-3-amino-propyl)-(4S*,7R*)-[4,7-ethenylene-spiro[2.4]heptane]-5,6-dicarboxamide]: the results for the EC50 at human FPRL2 and at human ALX receptor were 1630 nM and 12 nM, respectively.

As to `NCC1CCN(C(=O)[C@H]2[C@H](C(=O)Nc3ncc(Br)s3)[C@@H]3C=C[C@H]2C32CC2)CC1` [Example 325, (5R)—N^5-(5-Bromo-thiazol-2-yl)-(6R)—N^6,N^6-(3-(aminomethyl)pentane-1,5-diyl)-(4S,7R)-[4,7-ethenylene-spiro[2.4]heptane]-5,6-dicarboxamide], the EC50 on human FPRL2 is above 14100 nM; at human ALX receptor it was 19 nM.

With `Cc1nc2cc(NC(=O)[C@H]3[C@H](C(=O)NCCCCN4CCCC4)[C@H]4C=C[C@@H]3C43CC3)ccc2s1` (racemic) [Example 138, (5R*)—N^5-(2-Methyl-benzothiazol-5-yl)-(6R*)—N^6-(4-pyrrolidin-1-yl-butyl)-(4S*,7R*)-[4,7-ethenylene-spiro[2.4]heptane]-5,6-dicarboxamide], the values for the EC50 on human FPRL2 and on human ALX receptor were 332 nM and 570 nM, respectively.
